Laboratory results taken from ChEMBL document CHEMBL1151479, “Hypoxia-inducible factor-1 inhibitory benzofurans and chalcone-derived diels-alder adducts from Morus species” (J Nat Prod, 2009).

What was measured:
[1] = target: Hypoxia inducible factors; HIF-1-alpha, HIF-2-alpha (Homo sapiens, UniProt Q16665+Q99814); assay: Inhibition of hypoxia-induced HIF1 activation in human Hep3B cells by pGL3-HRE-luciferase reporter gene assay; assay type: cell-based; conditions: hep 3b2
[2] = tested on: Hep 3B2; assay: Inhibition of hypoxia-induced VEGF protein secretion in human Hep3B cells after 16 hrs by ELISA; assay type: functional, cell-based
[3] = Cytotoxicity against human Hep3B cells after 24 hrs by MTT assay; assay type: cell-based; conditions: hep 3b2, 24 h
[4] = tested on: Hep 3B2; assay: Effect on luciferase activity in human Hep3B cells exposed to hypoxic condition for 16 hrs; assay type: functional, cell-based
[5] = tested on: Hep 3B2; assay: Inhibition of luciferase expression in human Hep3B cells after 16 hrs under hypoxic condition; assay type: functional, cell-based

Structure (SMILES): CC(C)=CCc1c(O)ccc(C(=O)[C@H]2[C@@H](c3c(O)ccc(C(=O)/C=C/c4ccc(O)cc4O)c3O)C=C(C)C[C@@H]2c2ccc(O)cc2O)c1O
- IC50 [1]: 8.55 µM
- IC50 [2]: 3.14 µM
- Activity [3]: Dose-dependent effect

Structure (SMILES): CC(C)=CCc1c(O)ccc(C(=O)[C@H]2[C@@H](c3c(O)ccc(C(=O)/C=C/c4ccc(O)cc4)c3O)C=C(C)C[C@@H]2c2ccc(O)cc2)c1O
- IC50 [1]: 9.54 µM
- IC50 [2]: 7.84 µM

Structure (SMILES): CC(C)=CCC/C(C)=C/Cc1c(O)cc(O)cc1-c1cc2ccc(O)cc2o1 [ALBAFURAN A]
- IC50 [1]: 6.27 µM
- IC50 [2]: 2.62 µM
- Activity [3]: Dose-dependent effect

Structure (SMILES): CO[C@H]1/C=C\C=C(/C)C(=O)NC2=CC(=O)C(NCCN(C)C)=C(C[C@@H](C)C[C@H](OC)[C@H](O)[C@@H](C)/C=C(\C)[C@@H]1OC(N)=O)C2=O [ALVESPIMYCIN]
- IC50 [1]: > 30 µM
- IC50 [2]: 0.0795 µM

Structure (SMILES): Oc1cc(O)cc(-c2cc3ccc(O)cc3o2)c1 [MORACIN M]
- IC50 [1]: > 30 µM
- IC50 [2]: > 50 µM

Structure (SMILES): CC(C)(O)C1Cc2cc3cc(-c4cc(O)cc(O)c4)oc3cc2O1 (stereo not drawn) [MORACIN O]
- EC50 [4]: 0.001 µM
- IC50 [1]: > 30 µM
- IC50 [5]: 0.00179 µM
- IC50 [2]: 7.22 µM
- Activity [3]: Dose-dependent effect

Structure (SMILES): CC1(C)Oc2cc3oc(-c4cc(O)cc(O)c4)cc3cc2C[C@H]1O [MORACIN P]
- IC50 [1]: > 30 µM
- IC50 [2]: 10.6 µM
- Activity [3]: Dose-dependent effect

Structure (SMILES): COc1c(O)cc2oc(-c3cc(O)cc(O)c3)cc2c1CC(=O)C(C)C [MORACIN Q]
- IC50 [1]: > 30 µM
- IC50 [2]: 9.28 µM
- Activity [3]: Dose-dependent effect

Structure (SMILES): CC(C)=CCC/C(C)=C/Cc1c(O)ccc2cc(-c3cc(O)cc(O)c3CC=C(C)C)oc12 [MULBERROFURAN D]
- IC50 [1]: 8.76 µM
- IC50 [2]: 2.17 µM
- Activity [3]: Dose-dependent effect

Structure (SMILES): CC1=C[C@H]2c3c(O)cc(-c4cc5ccc(O)cc5o4)cc3O[C@@]3(c4ccc(O)cc4O)Oc4cc(O)ccc4[C@H](C1)[C@@H]23 [MULBERROFURAN G]
- IC50 [1]: > 30 µM
- IC50 [2]: 28.6 µM

Structure (SMILES): C[C@@]12C=C(c3c(O)cc(-c4cc5ccc(O)cc5o4)cc3O)C[C@@H](C1)c1ccc(O)cc1O2 [MULBERROFURAN H]
- IC50 [1]: > 30 µM
- IC50 [2]: 15.4 µM
- Activity [3]: Dose-dependent effect

Structure (SMILES): CC(C)=CCC/C(C)=C\CC/C(C)=C\Cc1c(O)cc(O)cc1-c1cc2ccc(O)cc2o1 [MULBERROFURAN W]
- IC50 [1]: 6.07 µM
- IC50 [2]: 3.05 µM

Structure (SMILES): CC(C)=CC[C@]12Oc3cc(O)c([C@H]4C=C(C)C[C@H](c5ccc(O)cc5O)[C@H]4C(=O)c4ccc(O)cc4O)c(O)c3C(=O)[C@@]1(O)Oc1cc(O)ccc12 [SANGGENON C]
- IC50 [1]: 8.26 µM
- IC50 [2]: 3.2 µM

Structure (SMILES): CC(C)=CC[C@@]12Oc3cc(O)c([C@H]4C=C(C)C[C@H](c5ccc(O)cc5O)[C@H]4C(=O)c4ccc(O)cc4O)c(O)c3C(=O)[C@]1(O)Oc1cc(O)ccc12 [SANGGENON O]
- IC50 [1]: 8.75 µM
- IC50 [2]: 2.08 µM
- Activity [3]: Dose-dependent effect
